# Source: patent US20250026723A1, “Cannabinoid Receptor Modulating Compounds” (THE UNITED STATES OF AMERICA, as represented by the …, priority 2021, published 2025)
# Like-named read-outs stand apart in the source and are kept apart here.
# Tests used:
# [1] = target: cannabinoid receptor 1 (CB1R) (Homo sapiens (Human), UniProt P21554); test: CB1R binding affinity (inhibition constant Ki)
# Caco-2 = Caco-2 permeability assay; conditions: Caco-2, assay conc 10 μM
# CB1 [2] = target: T1, CB1 (Homo sapiens (Human), UniProt P21554); test: CB1 antagonism assay, green (β-Arrestin) NOMAD biosensor, MPXNomad-CB1 HEK293 cells; assay type: cell-based
# Description: (§1) CB1 antagonism assays were conducted on red (cAMP) and green ([…]) NOMAD biosensors using MPXNomad-CB1 HEK293 cells using commercial kits and protocols provided by Innoprot (Derio, Spain).
# Target sequence in this assay (P21554 whole entry): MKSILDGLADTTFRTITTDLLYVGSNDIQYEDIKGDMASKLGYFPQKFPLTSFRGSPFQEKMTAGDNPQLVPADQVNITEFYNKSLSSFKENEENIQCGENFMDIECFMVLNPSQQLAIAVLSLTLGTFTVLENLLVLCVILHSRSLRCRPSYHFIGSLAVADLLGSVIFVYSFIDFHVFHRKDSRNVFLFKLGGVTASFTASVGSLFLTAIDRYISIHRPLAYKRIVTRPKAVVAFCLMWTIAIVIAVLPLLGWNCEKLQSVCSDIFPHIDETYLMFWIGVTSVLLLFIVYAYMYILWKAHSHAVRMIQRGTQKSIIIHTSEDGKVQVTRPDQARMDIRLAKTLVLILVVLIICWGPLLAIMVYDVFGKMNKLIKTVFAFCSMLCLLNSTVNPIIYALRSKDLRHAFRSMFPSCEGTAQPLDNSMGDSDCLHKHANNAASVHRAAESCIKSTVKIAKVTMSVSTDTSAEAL
# CB1 [3] = target: T1, CB1; test: CB1 antagonism assay, red (cAMP) NOMAD biosensor, MPXNomad-CB1 HEK293 cells; assay type: cell-based
# Description: as §1
# Target sequence in this assay (P21554 whole entry): as above
# [4] = Caco-2 permeability assay; conditions: human, Caco-2
# in vitro = conditions: human, Caco-2
# CB1 [5] = target: T1, CB1; test: Cannabinoid receptor modulator activity (Table 3, in words)
# Target sequence in this assay (P21554 whole entry, species assumed): as the sequence (P21554 whole entry) above
compound,measurement,setting,value
COC(=O)C(C)C[Se]C(=NS(=O)(=O)c1ccc(Cl)cc1)N1CC(c2ccccc2)C(c2ccc(Cl)cc2)=N1 (stereo not shown) [Compound 23],Ki,[1]; read-out: CB1R Ki,12.1 nM
COCCSC(=NS(=O)(=O)c1ccc(C(F)(F)F)cc1)N1CC(c2ccccc2)C(c2ccc(Cl)cc2)=N1 (stereo not shown) [Compound 1],Ki,[1]; read-out: CB1R Ki,6.9 nM
N#CCCCSC(=NS(=O)(=O)c1ccc(C(F)(F)F)cc1)N1CC(c2ccccc2)C(c2ccc(Cl)cc2)=N1 (stereo not shown) [Compound 2],Mean (B-A/A-B) Efflux Ratio,Caco-2,2.09
same,Mean Papp A-B,Caco-2,0.00561 10^−6 cm/s
same,Mean Papp B-A,Caco-2,0.0118 10^−6 cm/s
same,Ki,[1]; read-out: CB1R Ki,3.4 nM
same,IC50,"CB1 [2]; MPXNomad-CB1 HEK293 cells, CB1 antagonism, read-out: β-Arrestin IC50",1800 nM
same,IC50,"CB1 [3]; MPXNomad-CB1 HEK293 cells, CB1 antagonism, read-out: cAMP IC50",2490 nM
CSC(=NS(=O)(=O)c1ccc(C(F)(F)F)cc1)N1CC(c2ccccc2)C(c2ccc(Cl)cc2)=N1 (stereo not shown) [Compound 19],Ki,[1]; read-out: CB1R Ki,16.6 nM
NC(=O)CSC(=NS(=O)(=O)c1ccc(C(F)(F)F)cc1)N1CC(c2ccccc2)C(c2ccc(Cl)cc2)=N1 (stereo not shown) [Compound 3],Ki,[1]; read-out: CB1R Ki,21.2 nM
COC(=O)[C@@H](C)CS/C(=N\S(=O)(=O)c1ccc(C(F)(F)F)cc1)N1CC(c2ccccc2)C(c2ccc(Cl)cc2)=N1 (stereo partly shown) [Compound 3A],efflux ratio at 10 μM,[4],1.26
same,Ki,[1],7.7 nM
same,Papp A→B at 10 μM,in vitro,0.0096 ×10⁻⁶ cm/s
same,Papp B→A at 10 μM,in vitro,0.0121 ×10⁻⁶ cm/s
same,IC50,CB1 [2],0.04 nM
same,IC50,CB1 [3],0.61 nM
C[Se]C(=NS(=O)(=O)c1ccc(C(F)(F)F)cc1)N1CC(c2ccccc2)C(c2ccc(Cl)cc2)=N1 (stereo not shown) [Compound 12],Ki,[1]; read-out: CB1R Ki,3.3 nM
NC(=O)C[Se]C(=NS(=O)(=O)c1ccc(C(F)(F)F)cc1)N1CC(c2ccccc2)C(c2ccc(Cl)cc2)=N1 (stereo not shown) [Compound 20],Mean (B-A/A-B) Efflux Ratio,Caco-2,0.25
same,Mean Papp A-B,Caco-2,0.183 10^−6 cm/s
same,Mean Papp B-A,Caco-2,0.0451 10^−6 cm/s
same,Ki,[1]; read-out: CB1R Ki,14.4 nM
O=C(CCS/C(=N\S(=O)(=O)c1ccc(C(F)(F)F)cc1)N1CC(c2ccccc2)C(c2ccc(Cl)cc2)=N1)NO (stereo not shown) [Compound 3B],Activity at CB1 (in words),CB1 [5],"antagonist, potential"
